Experimental findings from US10344060B2 (priority 2013, dated 2019) are described below.

Read-outs that look alike come from different tables or passages of the source.

What all share (assay): cell-based
The target of test [1] is hNav1.7 (Homo sapiens, UniProt Q15858). The settings on record: for IC50: read-out: IC50 (μM) Nav1.7.
Test [2] deals with hNav1.4 (Homo sapiens, UniProt P35499). In kind it is cell-based. The settings on record: for IC50: read-out: IC50 (μM) Nav1.4; for Nav1.4/Nav1.7: ratio of IonWorks Quattro IC50 values. Background: Patch clamp records ionic current or voltage across a cell membrane.
Test [3] has as its target hNav1.3 (Homo sapiens, UniProt Q9NY46). The note with it: read-out: IC50 (μM) Nav1.3.
For test [4], the target named is hNav1.5 (Homo sapiens, UniProt Q14524). The settings on record: read-out: IC50 (μM) Nav1.5.
Sequence of hNav1.5 (Q14524 whole entry): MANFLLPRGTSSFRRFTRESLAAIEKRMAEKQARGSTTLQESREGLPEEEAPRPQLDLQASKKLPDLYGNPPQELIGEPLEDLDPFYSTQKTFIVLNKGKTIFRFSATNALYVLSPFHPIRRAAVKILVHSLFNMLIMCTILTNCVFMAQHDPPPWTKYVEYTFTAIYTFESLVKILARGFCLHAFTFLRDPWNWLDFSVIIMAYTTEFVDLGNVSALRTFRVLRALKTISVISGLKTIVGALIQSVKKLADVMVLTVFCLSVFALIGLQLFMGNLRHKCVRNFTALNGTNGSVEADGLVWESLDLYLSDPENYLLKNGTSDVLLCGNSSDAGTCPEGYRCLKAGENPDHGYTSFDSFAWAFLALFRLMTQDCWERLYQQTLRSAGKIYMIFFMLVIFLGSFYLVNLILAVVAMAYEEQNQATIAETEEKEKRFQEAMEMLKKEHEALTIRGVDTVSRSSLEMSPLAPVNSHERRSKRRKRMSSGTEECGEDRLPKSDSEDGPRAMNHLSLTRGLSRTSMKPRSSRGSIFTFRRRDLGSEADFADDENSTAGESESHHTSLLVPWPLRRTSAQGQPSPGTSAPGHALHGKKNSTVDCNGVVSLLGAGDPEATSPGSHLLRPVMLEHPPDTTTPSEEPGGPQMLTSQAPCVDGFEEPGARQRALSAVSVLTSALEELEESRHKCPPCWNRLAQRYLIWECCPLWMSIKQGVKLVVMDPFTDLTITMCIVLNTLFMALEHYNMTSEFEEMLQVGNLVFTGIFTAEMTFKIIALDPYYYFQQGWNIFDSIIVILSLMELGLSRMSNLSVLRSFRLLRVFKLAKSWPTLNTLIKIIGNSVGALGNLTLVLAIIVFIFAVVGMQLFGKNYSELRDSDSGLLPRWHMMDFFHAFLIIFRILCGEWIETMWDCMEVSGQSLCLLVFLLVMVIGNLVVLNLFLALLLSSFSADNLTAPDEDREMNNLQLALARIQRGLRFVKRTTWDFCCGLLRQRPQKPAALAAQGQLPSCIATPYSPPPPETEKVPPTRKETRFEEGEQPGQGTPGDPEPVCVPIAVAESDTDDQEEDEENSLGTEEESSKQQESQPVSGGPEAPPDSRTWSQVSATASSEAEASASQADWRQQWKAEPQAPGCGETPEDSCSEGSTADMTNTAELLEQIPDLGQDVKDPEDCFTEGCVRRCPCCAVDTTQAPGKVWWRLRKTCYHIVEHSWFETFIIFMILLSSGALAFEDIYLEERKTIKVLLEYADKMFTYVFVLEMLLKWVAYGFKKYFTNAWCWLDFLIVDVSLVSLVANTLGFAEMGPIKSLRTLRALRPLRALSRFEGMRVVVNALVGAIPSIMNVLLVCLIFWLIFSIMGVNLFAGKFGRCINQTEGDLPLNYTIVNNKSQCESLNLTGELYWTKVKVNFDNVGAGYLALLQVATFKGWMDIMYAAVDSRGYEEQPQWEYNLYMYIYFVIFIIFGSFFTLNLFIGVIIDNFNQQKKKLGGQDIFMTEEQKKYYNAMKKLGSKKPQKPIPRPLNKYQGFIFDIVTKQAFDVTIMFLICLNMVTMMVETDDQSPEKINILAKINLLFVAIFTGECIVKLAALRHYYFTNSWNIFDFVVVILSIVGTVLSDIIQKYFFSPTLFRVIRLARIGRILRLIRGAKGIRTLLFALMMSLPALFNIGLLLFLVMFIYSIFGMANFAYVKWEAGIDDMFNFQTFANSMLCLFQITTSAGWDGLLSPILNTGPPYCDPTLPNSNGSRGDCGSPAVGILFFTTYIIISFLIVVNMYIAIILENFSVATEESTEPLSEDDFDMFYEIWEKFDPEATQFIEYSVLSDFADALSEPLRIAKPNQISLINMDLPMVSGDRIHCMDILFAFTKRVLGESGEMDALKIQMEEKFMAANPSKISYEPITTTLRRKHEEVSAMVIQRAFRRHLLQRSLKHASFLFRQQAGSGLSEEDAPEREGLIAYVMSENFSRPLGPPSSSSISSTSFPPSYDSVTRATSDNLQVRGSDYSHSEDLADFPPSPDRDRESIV

What is called IC50 is the midpoint of a concentration-inhibition curve.

Sequence of hNav1.3 (Q9NY46 whole entry): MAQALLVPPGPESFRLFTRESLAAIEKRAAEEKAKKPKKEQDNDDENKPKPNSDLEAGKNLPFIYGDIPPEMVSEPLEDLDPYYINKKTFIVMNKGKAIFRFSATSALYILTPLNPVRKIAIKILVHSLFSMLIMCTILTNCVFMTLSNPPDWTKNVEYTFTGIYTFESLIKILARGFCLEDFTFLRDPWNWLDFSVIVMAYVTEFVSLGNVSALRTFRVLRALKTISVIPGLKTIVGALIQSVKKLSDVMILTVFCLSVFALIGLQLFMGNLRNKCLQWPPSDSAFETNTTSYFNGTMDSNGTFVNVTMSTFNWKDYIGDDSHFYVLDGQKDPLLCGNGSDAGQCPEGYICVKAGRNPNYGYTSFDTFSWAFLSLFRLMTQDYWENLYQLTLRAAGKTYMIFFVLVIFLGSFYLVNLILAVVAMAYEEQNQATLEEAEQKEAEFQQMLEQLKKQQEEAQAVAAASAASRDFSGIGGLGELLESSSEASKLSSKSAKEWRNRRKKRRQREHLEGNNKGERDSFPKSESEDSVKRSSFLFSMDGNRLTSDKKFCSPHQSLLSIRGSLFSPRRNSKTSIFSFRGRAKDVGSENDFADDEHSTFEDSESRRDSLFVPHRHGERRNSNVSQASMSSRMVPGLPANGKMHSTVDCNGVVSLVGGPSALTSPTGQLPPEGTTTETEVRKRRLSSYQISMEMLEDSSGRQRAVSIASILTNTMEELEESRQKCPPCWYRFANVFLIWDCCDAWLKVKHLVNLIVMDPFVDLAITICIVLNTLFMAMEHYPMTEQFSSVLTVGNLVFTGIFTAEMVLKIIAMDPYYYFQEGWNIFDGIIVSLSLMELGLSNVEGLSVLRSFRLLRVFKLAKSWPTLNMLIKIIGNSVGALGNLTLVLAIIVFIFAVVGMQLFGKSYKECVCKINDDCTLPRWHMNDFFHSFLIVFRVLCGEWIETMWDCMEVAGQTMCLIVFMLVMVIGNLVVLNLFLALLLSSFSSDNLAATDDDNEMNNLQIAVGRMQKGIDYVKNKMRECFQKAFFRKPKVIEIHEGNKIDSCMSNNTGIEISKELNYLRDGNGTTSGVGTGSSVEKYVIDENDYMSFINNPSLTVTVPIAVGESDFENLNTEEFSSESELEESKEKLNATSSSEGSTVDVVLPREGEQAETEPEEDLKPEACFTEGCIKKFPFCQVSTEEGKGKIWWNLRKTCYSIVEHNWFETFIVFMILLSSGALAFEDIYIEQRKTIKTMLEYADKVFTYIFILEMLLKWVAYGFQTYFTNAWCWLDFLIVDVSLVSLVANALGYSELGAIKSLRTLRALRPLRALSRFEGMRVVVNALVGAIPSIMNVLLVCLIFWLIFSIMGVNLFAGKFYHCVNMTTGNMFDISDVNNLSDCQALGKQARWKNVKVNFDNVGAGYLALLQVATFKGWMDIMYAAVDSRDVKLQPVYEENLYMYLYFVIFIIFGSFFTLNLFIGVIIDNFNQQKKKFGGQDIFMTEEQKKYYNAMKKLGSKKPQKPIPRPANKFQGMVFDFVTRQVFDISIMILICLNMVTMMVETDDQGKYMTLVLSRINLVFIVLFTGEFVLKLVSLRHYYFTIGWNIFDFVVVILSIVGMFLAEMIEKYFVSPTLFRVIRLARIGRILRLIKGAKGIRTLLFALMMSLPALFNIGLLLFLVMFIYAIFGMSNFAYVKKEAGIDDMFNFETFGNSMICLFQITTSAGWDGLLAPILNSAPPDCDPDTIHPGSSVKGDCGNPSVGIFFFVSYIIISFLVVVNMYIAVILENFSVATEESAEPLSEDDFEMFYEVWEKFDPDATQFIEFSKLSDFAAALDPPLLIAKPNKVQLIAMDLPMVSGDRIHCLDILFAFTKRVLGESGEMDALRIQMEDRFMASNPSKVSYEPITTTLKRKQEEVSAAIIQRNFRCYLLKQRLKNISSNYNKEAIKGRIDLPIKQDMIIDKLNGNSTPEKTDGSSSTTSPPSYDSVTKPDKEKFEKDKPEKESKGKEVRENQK

With `CC[C@H](C)[C@H](NC(=O)[C@@H](NC(=O)[C@H](CCCCN)NC(=O)[C@H](CCCNC(=N)N)NC(=O)[C@@H]1CSSC[C@@H]2NC(=O)[C@H](CCCNC(=N)N)NC(=O)[C@H](CCCNC(=N)N)NC(=O)[C@H](CCCCN)NC(=O)[C@H](CO)NC(=O)[C@H](CC(=O)O)NC(=O)[C@@H]3CSSC[C@H](NC(=O)[C@H](CCCNC(=N)N)NC(=O)[C@H](CC(C)C)NC(=O)CNC(=O)[C@H](CCC(=O)O)NC(=O)[C@H](CSSC[C@H](NC(=O)[C@@H](N)Cc4ccc(O)cc4)C(=O)N[C@@H](CCC(N)=O)C(=O)N[C@@H](CCCCN)C(=O)N[C@@H](Cc4c[nH]c5ccccc45)C(=O)N[C@@H](CCSC)C(=O)N[C@@H](Cc4c[nH]c5ccccc45)C(=O)N[C@@H]([C@@H](C)O)C(=O)N3)NC2=O)C(=O)N[C@@H](CCCCN)C(=O)N[C@@H](CC(C)C)C(=O)N[C@@H](Cc2c[nH]c3ccccc23)C(=O)N1)[C@@H](C)CC)C(N)=O` [compound 100], the IC50 was 0.008 µM in test [1]; 0.08 µM in test [2] (IonWorks Quattro, Table 6); 0.04 µM in test [3] (IonWorks Quattro, Table 6); 1.4 µM in test [4] (IonWorks Quattro, Table 6). In test [2] (Table 6), the Nav1.4/Nav1.7 was determined as 11.

Take `CC[C@H](C)[C@H](NC(=O)[C@@H](NC(=O)[C@H](CCCCN)NC(=O)[C@H](CCCNC(=N)N)NC(=O)[C@@H]1CSSC[C@@H]2NC(=O)[C@H](C)NC(=O)[C@H](CCCNC(=N)N)NC(=O)[C@H](CCCCN)NC(=O)[C@H](CO)NC(=O)[C@H](CC(=O)O)NC(=O)[C@@H]3CSSC[C@H](NC(=O)[C@H](CCCNC(=N)N)NC(=O)[C@H](CC(C)C)NC(=O)CNC(=O)[C@H](CCCNC(=N)N)NC(=O)[C@H](CSSC[C@H](NC(=O)[C@@H](N)Cc4ccc(O)cc4)C(=O)N[C@@H](CCC(N)=O)C(=O)N[C@@H](CCCCN)C(=O)N[C@@H](Cc4c[nH]c5ccccc45)C(=O)N[C@@H](CCSC)C(=O)N[C@@H](Cc4c[nH]c5ccccc45)C(=O)N[C@@H]([C@@H](C)O)C(=O)N3)NC2=O)C(=O)N[C@@H](CCCCN)C(=O)N[C@@H](CC(C)C)C(=O)N[C@@H](Cc2c[nH]c3ccccc23)C(=O)N1)[C@@H](C)CC)C(N)=O` [compound 101]: the IC50 was found to be 0.014 µM in test [1]; 0.06 µM in test [2] (IonWorks Quattro, Table 6); 0.04 µM in test [3] (IonWorks Quattro, Table 6); 0.95 µM in test [4] (IonWorks Quattro, Table 6). Besides, the Nav1.4/Nav1.7 in test [2] (Table 6) came out at 4.

On to `CC[C@H](C)[C@H](NC(=O)[C@@H](NC(=O)[C@H](CCCCN)NC(=O)[C@H](CCCNC(=N)N)NC(=O)[C@@H]1CSSC[C@@H]2NC(=O)[C@H](C)NC(=O)[C@H](CCCNC(=N)N)NC(=O)[C@H](CCCCN)NC(=O)[C@H](CO)NC(=O)[C@H](CC(=O)O)NC(=O)[C@@H]3CSSC[C@H](NC(=O)[C@H](CCCNC(=N)N)NC(=O)[C@H](CC(C)C)NC(=O)CNC(=O)[C@H](CCC(=O)O)NC(=O)[C@H](CSSC[C@H](NC(=O)[C@@H](N)Cc4ccc(O)cc4)C(=O)N[C@@H](CCC(N)=O)C(=O)N[C@@H](CCCCN)C(=O)N[C@@H](Cc4c[nH]c5ccccc45)C(=O)N[C@@H](CCSC)C(=O)N[C@@H](Cc4c[nH]c5ccccc45)C(=O)N[C@@H]([C@@H](C)O)C(=O)N3)NC2=O)C(=O)N[C@@H](CCCNC(=N)N)C(=O)N[C@@H](CC(C)C)C(=O)N[C@@H](Cc2c[nH]c3ccccc23)C(=O)N1)[C@@H](C)CC)C(N)=O` [compound 104], for which the IC50 in test [1] is 0.016 µM; in test [2] (IonWorks Quattro, Table 6) it was 0.17 µM; in test [3] (IonWorks Quattro, Table 6) it was 0.08 µM; in test [4] (IonWorks Quattro, Table 6), 2 µM. Moreover, the Nav1.4/Nav1.7 in test [2] (Table 6) is 11.

On to `CC[C@H](C)[C@H](NC(=O)[C@@H](NC(=O)[C@H](CCCCN)NC(=O)[C@H](CCCNC(=N)N)NC(=O)[C@@H]1CSSC[C@@H]2NC(=O)[C@H](C)NC(=O)[C@H](CCCNC(=N)N)NC(=O)[C@H](CCCCN)NC(=O)[C@H](CO)NC(=O)[C@H](CC(=O)O)NC(=O)[C@@H]3CSSC[C@H](NC(=O)[C@H](CCCNC(=N)N)NC(=O)[C@H](CC(C)C)NC(=O)CNC(=O)[C@H](CCC(=O)O)NC(=O)[C@H](CSSC[C@H](NC(=O)[C@@H](N)Cc4ccc(O)cc4)C(=O)N[C@@H](CCC(N)=O)C(=O)N[C@@H](CCCCN)C(=O)N[C@@H](Cc4c[nH]c5ccccc45)C(=O)N[C@@H](CCSC)C(=O)N[C@@H](Cc4c[nH]c5ccccc45)C(=O)N[C@@H]([C@@H](C)O)C(=O)N3)NC2=O)C(=O)N[C@@H](CCCCN)C(=O)N[C@@H](CCCNC(=N)N)C(=O)N[C@@H](Cc2c[nH]c3ccccc23)C(=O)N1)[C@@H](C)CC)C(N)=O` [compound 105], for which the IC50 in test [1] was 0.15 µM; in test [2] (IonWorks Quattro, Table 6), 0.21 µM; in test [3] (IonWorks Quattro, Table 6), 0.15 µM; in test [4] (IonWorks Quattro, Table 6) it was 2.8 µM. In addition, the Nav1.4/Nav1.7 in test [2] (Table 6) worked out at 1.

On to `CC[C@H](C)[C@H](NC(=O)[C@@H](NC(=O)[C@H](CCCCN)NC(=O)[C@H](CCCNC(=N)N)NC(=O)[C@@H]1CSSC[C@@H]2NC(=O)[C@H](C)NC(=O)[C@H](CCCNC(=N)N)NC(=O)[C@H](CCCCN)NC(=O)[C@H](CO)NC(=O)[C@H](CC(=O)O)NC(=O)[C@@H]3CSSC[C@H](NC(=O)[C@H](CCCNC(=N)N)NC(=O)[C@H](CC(C)C)NC(=O)CNC(=O)[C@H](CCC(=O)O)NC(=O)[C@H](CSSC[C@H](NC(=O)[C@@H](N)Cc4ccc(O)cc4)C(=O)N[C@@H](CCC(N)=O)C(=O)N[C@@H](CCCCN)C(=O)N[C@@H](Cc4c[nH]c5ccccc45)C(=O)N[C@@H](CCSC)C(=O)N[C@@H](Cc4c[nH]c5ccccc45)C(=O)N[C@@H]([C@@H](C)O)C(=O)N3)NC2=O)C(=O)N[C@@H](CCCCN)C(=O)N[C@@H](CC(C)C)C(=O)N[C@@H](CCCNC(=N)N)C(=O)N1)[C@@H](C)CC)C(N)=O` [compound 106], for which the concentration for half-maximal inhibition (IC50) in test [1] is 5 µM; in test [2] (IonWorks Quattro, Table 6), 2.5 µM; in test [3] (IonWorks Quattro, Table 6), 4.8 µM; in test [4] (IonWorks Quattro, Table 6), over 5 µM. Moreover, the Nav1.4/Nav1.7 in test [2] (Table 6) is 1.

Turning to `CC[C@H](C)[C@H](NC(=O)[C@@H](NC(=O)[C@H](CCCNC(=N)N)NC(=O)[C@H](CCCNC(=N)N)NC(=O)[C@@H]1CSSC[C@@H]2NC(=O)[C@H](C)NC(=O)[C@H](CCCNC(=N)N)NC(=O)[C@H](CCCCN)NC(=O)[C@H](CO)NC(=O)[C@H](CC(=O)O)NC(=O)[C@@H]3CSSC[C@H](NC(=O)[C@H](CCCNC(=N)N)NC(=O)[C@H](CC(C)C)NC(=O)CNC(=O)[C@H](CCC(=O)O)NC(=O)[C@H](CSSC[C@H](NC(=O)[C@@H](N)Cc4ccc(O)cc4)C(=O)N[C@@H](CCC(N)=O)C(=O)N[C@@H](CCCCN)C(=O)N[C@@H](Cc4c[nH]c5ccccc45)C(=O)N[C@@H](CCSC)C(=O)N[C@@H](Cc4c[nH]c5ccccc45)C(=O)N[C@@H]([C@@H](C)O)C(=O)N3)NC2=O)C(=O)N[C@@H](CCCCN)C(=O)N[C@@H](CC(C)C)C(=O)N[C@@H](Cc2c[nH]c3ccccc23)C(=O)N1)[C@@H](C)CC)C(N)=O` [compound 107], the IC50 was 0.028 µM in test [1]; 0.23 µM in test [2] (IonWorks Quattro, Table 6); 0.1 µM in test [3] (IonWorks Quattro, Table 6); over 5 µM in test [4] (IonWorks Quattro, Table 6). In addition, the Nav1.4/Nav1.7 in test [2] (Table 6) is reported as 8.

Consider `CC[C@H](C)[C@H](NC(=O)[C@H](CCCCN)NC(=O)[C@H](CCCNC(=N)N)NC(=O)[C@@H]1CSSC[C@@H]2NC(=O)[C@H](C)NC(=O)[C@H](CCCNC(=N)N)NC(=O)[C@H](CCCCN)NC(=O)[C@H](CO)NC(=O)[C@H](CC(=O)O)NC(=O)[C@@H]3CSSC[C@H](NC(=O)[C@H](CCCNC(=N)N)NC(=O)[C@H](CC(C)C)NC(=O)CNC(=O)[C@H](CCC(=O)O)NC(=O)[C@H](CSSC[C@H](NC(=O)[C@@H](N)Cc4ccc(O)cc4)C(=O)N[C@@H](CCC(N)=O)C(=O)N[C@@H](CCCCN)C(=O)N[C@@H](Cc4c[nH]c5ccccc45)C(=O)N[C@@H](CCSC)C(=O)N[C@@H](Cc4c[nH]c5ccccc45)C(=O)N[C@@H]([C@@H](C)O)C(=O)N3)NC2=O)C(=O)N[C@@H](CCCCN)C(=O)N[C@@H](CC(C)C)C(=O)N[C@@H](Cc2c[nH]c3ccccc23)C(=O)N1)C(=O)N[C@@H](CCCNC(=N)N)C(N)=O` [compound 109], for which the IC50 is 0.067 µM in test [1]; 1.1 µM in test [2] (IonWorks Quattro, Table 6); 1.3 µM in test [3] (IonWorks Quattro, Table 6); over 5 µM in test [4] (IonWorks Quattro, Table 6). Besides, the Nav1.4/Nav1.7 in test [2] (Table 6) stood at 16.

As to `CC[C@@H]1NC(=O)[C@H](CC(C)C)NC(=O)CNC(=O)[C@H](CCC(=O)O)NC(=O)[C@@H]2CSSC[C@H](NC(=O)[C@@H](N)Cc3ccc(O)cc3)C(=O)N[C@@H](CCC(N)=O)C(=O)N[C@@H](CCCCN)C(=O)N[C@@H](Cc3c[nH]c4ccccc34)C(=O)N[C@@H](CCSC)C(=O)N[C@@H](Cc3c[nH]c4ccccc34)C(=O)N[C@@H]([C@@H](C)O)C(=O)N[C@H]3CSSC[C@H](NC1=O)C(=O)N[C@@H](CCCCN)C(=O)N[C@@H](CC(C)C)C(=O)N[C@@H](Cc1c[nH]c4ccccc14)C(=O)N[C@H](C(=O)N[C@@H](CCCNC(=N)N)C(=O)N[C@@H](CCCCN)C(=O)N[C@H](C(=O)N[C@H](C(N)=O)[C@@H](C)CC)[C@@H](C)CC)CSSC[C@H](NC(=O)[C@H](C)NC(=O)[C@H](CCCNC(=N)N)NC(=O)[C@H](CCCCN)NC(=O)[C@H](CO)NC(=O)[C@H](CC(=O)O)NC3=O)C(=O)N2` [compound 117], in test [1] (ratio of IonWorks Quattro IC50 values, Nav1.4 over Nav1.7), the Nav1.4/Nav1.7 is reported as 19. For the same molecule, the IC50 in test [1] stood at 0.05 µM; in test [2] it was 0.9 µM; in test [3] it was 0.97 µM; in test [4] it was 10.6 µM.
